Results: ChEMBL document CHEMBL6092221, “Discovery of a Novel Macrocyclic Noncovalent CDK7 Inhibitor for Cancer Therapy” (J Med Chem, 2024)
pIC50, pKd: −log10 of the molar value. Converted amounts (≈) assume the structure as drawn.

What was measured:
[1] = Plasma protein binding in mouse assessed as unbound fraction; type: ADME, cell-free
[2] = Half life in mouse at 1 mg/kg, iv; type: ADME, organism-based; settings: in vivo
[3] = Half life in mouse at 5 mg/kg, po; type: ADME, organism-based; settings: in vivo
[4] = Solubility of compound at pH 7.4; type: physicochemical; settings: buffer
[5] = biological target: Ribosomal protein S6 kinase alpha-3 (Homo sapiens, UniProt P51812); experiment: Inhibition of RSK2 (unknown origin) at 200 nM relative to control; values are per cent of control
Sequence of Ribosomal protein S6 kinase alpha-3 (P51812 whole entry): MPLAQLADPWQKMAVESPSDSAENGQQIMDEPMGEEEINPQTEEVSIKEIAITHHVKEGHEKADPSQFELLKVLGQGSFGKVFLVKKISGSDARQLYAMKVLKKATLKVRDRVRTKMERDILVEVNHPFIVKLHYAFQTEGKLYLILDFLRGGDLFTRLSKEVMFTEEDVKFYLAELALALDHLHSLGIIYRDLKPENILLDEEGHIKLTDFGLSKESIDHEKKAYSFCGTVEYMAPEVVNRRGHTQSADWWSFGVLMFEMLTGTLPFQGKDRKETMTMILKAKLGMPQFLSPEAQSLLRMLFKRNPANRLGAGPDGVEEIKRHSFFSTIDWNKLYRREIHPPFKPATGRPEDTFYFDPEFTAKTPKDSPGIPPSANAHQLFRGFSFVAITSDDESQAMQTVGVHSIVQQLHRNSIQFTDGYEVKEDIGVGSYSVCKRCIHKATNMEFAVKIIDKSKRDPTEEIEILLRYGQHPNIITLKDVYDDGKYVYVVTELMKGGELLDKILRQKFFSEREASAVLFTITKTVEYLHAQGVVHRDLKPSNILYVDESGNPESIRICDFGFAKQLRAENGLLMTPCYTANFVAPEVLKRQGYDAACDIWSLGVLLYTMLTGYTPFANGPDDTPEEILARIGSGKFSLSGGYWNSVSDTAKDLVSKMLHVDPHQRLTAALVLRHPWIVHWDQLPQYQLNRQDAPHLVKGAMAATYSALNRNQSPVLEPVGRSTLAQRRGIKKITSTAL

[6] = Half life in human HCC70 cells xenografted in female nu/nu mouse plasma at 10 mg/kg, po administered once daily; type: ADME, organism-based
[7] = Cmax in human OVCAR-3 cells xenografted in female Balb/c nude mouse plasma at 5 mg/kg, po administered once daily; type: ADME, organism-based
[8] = AUC(0 to 24 hrs) in Sprague-Dawley rat at 30 mg/kg, po; type: ADME, organism-based; settings: in vivo
[9] = AUC(0 to t) in human HCC70 cells xenografted in female nu/nu mouse plasma at 1 mg/kg, po administered once daily; type: ADME, organism-based
[10] = AUC(0 to t) in dog at 0.2 mg/kg, iv; type: ADME, organism-based, Canis lupus familiaris; settings: in vivo
[11] = Clearance in mouse at 1 mg/kg, iv; type: ADME, organism-based; settings: in vivo
[12] = biological target: T1, Mitogen-activated protein kinase 7 (Homo sapiens, UniProt Q13164); experiment: Inhibition of Erk5 (unknown origin) at 200 nM relative to control; values are per cent of control
Target sequence in this assay (Q13164 2-816 limits assumed): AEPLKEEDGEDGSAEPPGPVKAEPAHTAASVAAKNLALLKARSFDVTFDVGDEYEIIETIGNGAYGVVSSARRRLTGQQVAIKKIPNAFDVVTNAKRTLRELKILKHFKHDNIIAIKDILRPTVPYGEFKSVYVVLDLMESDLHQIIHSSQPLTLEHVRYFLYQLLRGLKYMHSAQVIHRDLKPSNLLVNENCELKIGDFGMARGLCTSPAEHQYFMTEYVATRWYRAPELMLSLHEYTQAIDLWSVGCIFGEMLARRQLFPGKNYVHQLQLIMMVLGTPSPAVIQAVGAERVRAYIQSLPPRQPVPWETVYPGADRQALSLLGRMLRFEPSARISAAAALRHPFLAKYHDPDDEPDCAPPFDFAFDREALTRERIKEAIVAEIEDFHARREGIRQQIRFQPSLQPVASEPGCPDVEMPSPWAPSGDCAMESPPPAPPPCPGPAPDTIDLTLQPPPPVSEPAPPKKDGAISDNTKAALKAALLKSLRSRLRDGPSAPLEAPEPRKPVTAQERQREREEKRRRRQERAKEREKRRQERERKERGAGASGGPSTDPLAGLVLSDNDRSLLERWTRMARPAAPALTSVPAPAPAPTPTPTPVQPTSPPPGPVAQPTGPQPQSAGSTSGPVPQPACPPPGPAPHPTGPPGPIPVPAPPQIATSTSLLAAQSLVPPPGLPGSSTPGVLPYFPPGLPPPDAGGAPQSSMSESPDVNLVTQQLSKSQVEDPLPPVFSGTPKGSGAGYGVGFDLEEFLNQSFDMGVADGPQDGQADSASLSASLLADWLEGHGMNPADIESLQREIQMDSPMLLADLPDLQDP

[13] = biological target: Cyclin-Y/Cyclin-dependent kinase 16 (Homo sapiens, UniProt Q00536); experiment: Inhibition of CDK16/CyclinY (unknown origin); type: protein-complex assay
Sequence of Cyclin-Y/Cyclin-dependent kinase 16 (Q00536 whole entry): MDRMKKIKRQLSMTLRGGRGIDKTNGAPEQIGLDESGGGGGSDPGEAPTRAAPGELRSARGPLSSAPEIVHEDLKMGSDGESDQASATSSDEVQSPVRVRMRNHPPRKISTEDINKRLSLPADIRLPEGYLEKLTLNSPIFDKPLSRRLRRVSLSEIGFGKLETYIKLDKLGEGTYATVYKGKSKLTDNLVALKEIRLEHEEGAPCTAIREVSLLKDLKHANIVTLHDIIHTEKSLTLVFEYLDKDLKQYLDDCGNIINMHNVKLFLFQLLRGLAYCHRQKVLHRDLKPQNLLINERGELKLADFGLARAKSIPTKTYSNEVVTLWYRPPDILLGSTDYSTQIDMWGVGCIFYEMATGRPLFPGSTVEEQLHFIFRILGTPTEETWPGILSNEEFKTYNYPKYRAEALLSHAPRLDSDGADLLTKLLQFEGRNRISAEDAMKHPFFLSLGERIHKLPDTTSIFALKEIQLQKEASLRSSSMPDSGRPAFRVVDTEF
Sequence of Cyclin-Y/Cyclin-dependent kinase 16 (Q8ND76 whole entry, further chain): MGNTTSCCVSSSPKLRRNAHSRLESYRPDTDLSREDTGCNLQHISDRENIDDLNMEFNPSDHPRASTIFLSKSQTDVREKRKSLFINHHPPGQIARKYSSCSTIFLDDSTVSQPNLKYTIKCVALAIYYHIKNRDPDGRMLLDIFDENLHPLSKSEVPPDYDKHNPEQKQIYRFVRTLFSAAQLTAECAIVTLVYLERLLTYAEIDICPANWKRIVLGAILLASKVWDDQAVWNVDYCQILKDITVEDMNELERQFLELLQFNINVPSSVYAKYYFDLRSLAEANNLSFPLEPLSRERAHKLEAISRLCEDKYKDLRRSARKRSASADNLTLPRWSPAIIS

[14] = biological target: T1, Mitogen-activated protein kinase 7; experiment: Inhibition of Erk5 (unknown origin)
[15] = AUC(0 to t) in rat at 5 mg/kg, po; type: ADME, organism-based; settings: in vivo
OVCAR-3 = experiment: Antitumor activity against human OVCAR-3 cells xenografted in female Balb/c nude mouse assessed as tumor growth inhibition at 5 mg/kg, po administered once daily and measured on day 22; type: functional; settings: OVCAR-3, 528 h, time 22 day, read-out: TGI
[16] = Metabolic stability in mouse liver microsomes assessed as intrinsic clearance; type: ADME, Microsome; settings: read-out: CLH
[17] = biological target: Cyclin-Y/Cyclin-dependent kinase 16 (Homo sapiens) (UniProt Q00536+Q8ND76); experiment: Inhibition of CDK16/CyclinY (unknown origin) at 200 nM relative to control; values are per cent of control
[18] = Cmax in human OVCAR-3 cells xenografted in female Balb/c nude mouse plasma at 2 mg/kg, po administered once daily; type: ADME, organism-based
[19] = Half life in Sprague-Dawley rat at 100 mg/kg, po; type: ADME, organism-based; settings: in vivo
[20] = AUC(0 to 48 hrs) in Sprague-Dawley rat at 300 mg/kg, po; type: ADME, organism-based; settings: in vivo
[21] = AUC (0 to t) in human OVCAR-3 cells xenografted in female Balb/c nude mouse plasma at 20 mg/kg, po administered once daily; type: ADME, organism-based
Cytochrome P450 2C9 = Cytochrome P450 2C9 (Homo sapiens, UniProt P11712); experiment: Inhibition of CYP2C9 (unknown origin); type: ADME
Sequence of Cytochrome P450 2C9 (P11712 whole entry): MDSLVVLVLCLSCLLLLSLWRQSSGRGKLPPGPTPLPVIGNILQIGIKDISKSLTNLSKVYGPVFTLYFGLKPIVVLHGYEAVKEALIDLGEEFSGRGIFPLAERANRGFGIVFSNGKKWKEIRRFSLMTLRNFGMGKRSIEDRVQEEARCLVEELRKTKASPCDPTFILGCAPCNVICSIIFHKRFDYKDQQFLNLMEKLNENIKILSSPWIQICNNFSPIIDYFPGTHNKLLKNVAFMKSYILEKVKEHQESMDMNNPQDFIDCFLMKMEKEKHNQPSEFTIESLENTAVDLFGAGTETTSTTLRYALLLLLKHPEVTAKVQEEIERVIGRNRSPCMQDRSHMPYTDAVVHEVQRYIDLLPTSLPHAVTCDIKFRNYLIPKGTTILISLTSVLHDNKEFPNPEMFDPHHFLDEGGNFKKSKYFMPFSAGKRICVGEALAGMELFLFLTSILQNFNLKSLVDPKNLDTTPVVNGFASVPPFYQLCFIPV

[22] = Drug concentration in rat plasma at 5 mg/kg, po measured after 0.5 hrs; type: ADME, organism-based
[23] = Cmax in Sprague-Dawley rat at 30 mg/kg, po; type: ADME, organism-based; settings: in vivo
[24] = Cmax in female Balb/c nude mouse at 5 mg/kg, po; type: ADME, organism-based; settings: in vivo
[25] = Half life in human OVCAR-3 cells xenografted in female Balb/c nude mouse plasma at 2 mg/kg, po administered once daily; type: ADME, organism-based
HCC70 = experiment: cells; settings: Homo sapiens, HCC70, 72 h
Description: Antiproliferative activity against human HCC70 cells assessed as inhibition of cell proliferation incubated for 72 hrs by celltiter-glo assay

[26] = Cmax in human HCC70 cells xenografted in female nu/nu mouse plasma at 3 mg/kg, po administered once daily; type: ADME, organism-based
[27] = Volume of distribution at steady state in rat at 1 mg/kg, iv; type: ADME, organism-based; settings: in vivo, read-out: Vdss
[28] = AUC(0 to t) in human HCC70 cells xenografted in female nu/nu mouse plasma at 10 mg/kg, po administered once daily; type: ADME, organism-based
[29] = biological target: Cyclin-dependent kinase 4/cyclin D1 (Homo sapiens) (UniProt P11802+P24385); experiment: Inhibition of CDK4/CyclinD1 (unknown origin) at 200 nM relative to control; values are per cent of control
[30] = Oral bioavailability in mouse at 5 mg/kg; type: ADME, organism-based; settings: in vivo
CDK4/Cyclin D3 = CDK4/Cyclin D3 (Homo sapiens, UniProt P11802); experiment: Inhibition of CDK4/Cyclin D3 (unknown origin); type: protein-complex assay
Sequence of CDK4/Cyclin D3 (P11802 whole entry): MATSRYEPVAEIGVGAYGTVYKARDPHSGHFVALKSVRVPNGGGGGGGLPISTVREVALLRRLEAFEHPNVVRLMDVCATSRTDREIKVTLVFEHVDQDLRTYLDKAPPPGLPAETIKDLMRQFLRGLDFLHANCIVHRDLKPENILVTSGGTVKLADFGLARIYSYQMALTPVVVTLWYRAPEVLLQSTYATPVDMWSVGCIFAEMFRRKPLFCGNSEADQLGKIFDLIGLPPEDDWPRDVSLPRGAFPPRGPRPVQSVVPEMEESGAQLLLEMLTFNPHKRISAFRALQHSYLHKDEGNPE
Sequence of CDK4/Cyclin D3 (P30281 whole entry, further chain): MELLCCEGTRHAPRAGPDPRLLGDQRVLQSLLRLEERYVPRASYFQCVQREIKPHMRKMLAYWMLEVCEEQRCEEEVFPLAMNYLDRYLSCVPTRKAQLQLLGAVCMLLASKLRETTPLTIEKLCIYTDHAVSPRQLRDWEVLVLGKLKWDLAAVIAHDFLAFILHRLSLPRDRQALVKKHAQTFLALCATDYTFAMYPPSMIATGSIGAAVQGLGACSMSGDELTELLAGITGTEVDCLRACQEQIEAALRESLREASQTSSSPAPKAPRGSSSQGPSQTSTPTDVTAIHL

[31] = biological target: Voltage-gated inwardly rectifying potassium channel KCNH2 (Homo sapiens, UniProt Q12809); experiment: Inhibition of hERG; type: toxicity
Sequence of Voltage-gated inwardly rectifying potassium channel KCNH2 (Q12809 whole entry): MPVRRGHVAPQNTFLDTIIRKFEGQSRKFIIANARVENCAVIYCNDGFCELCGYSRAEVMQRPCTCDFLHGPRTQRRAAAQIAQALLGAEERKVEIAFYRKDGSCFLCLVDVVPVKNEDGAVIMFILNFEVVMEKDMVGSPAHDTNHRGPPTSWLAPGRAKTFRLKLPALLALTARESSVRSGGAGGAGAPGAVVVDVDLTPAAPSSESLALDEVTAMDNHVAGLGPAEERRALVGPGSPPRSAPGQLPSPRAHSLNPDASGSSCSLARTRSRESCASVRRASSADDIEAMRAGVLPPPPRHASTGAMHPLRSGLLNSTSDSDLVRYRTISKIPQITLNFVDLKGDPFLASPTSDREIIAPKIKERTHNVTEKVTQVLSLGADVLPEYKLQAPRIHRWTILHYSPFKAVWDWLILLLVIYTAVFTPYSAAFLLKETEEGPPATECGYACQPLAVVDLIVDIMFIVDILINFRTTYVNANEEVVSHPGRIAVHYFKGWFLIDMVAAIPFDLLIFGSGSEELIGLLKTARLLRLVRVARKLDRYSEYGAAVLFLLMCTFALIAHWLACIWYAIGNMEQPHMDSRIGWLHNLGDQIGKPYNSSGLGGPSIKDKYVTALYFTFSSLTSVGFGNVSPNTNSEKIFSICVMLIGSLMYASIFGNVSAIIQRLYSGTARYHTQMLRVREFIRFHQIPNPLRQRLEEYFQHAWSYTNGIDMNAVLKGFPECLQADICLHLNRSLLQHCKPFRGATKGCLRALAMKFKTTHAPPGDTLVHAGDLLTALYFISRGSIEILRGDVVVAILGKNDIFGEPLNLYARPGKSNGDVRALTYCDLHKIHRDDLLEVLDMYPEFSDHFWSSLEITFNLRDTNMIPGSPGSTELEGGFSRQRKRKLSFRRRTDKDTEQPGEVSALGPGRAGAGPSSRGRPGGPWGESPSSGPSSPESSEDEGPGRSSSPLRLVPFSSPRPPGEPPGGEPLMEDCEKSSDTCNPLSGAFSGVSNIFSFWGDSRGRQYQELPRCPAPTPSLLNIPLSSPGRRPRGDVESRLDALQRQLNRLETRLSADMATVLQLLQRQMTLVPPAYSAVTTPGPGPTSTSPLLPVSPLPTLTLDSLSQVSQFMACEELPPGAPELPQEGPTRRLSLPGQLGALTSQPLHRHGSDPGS

[32] = biological target: Mitogen-activated protein kinase 15 (Homo sapiens, UniProt Q8TD08); experiment: Inhibition of Erk8 (unknown origin)
[33] = Volume of distribution at steady state in female Balb/c nude mouse at 1 mg/kg, iv; type: ADME, organism-based; settings: in vivo, read-out: Vdss
[34] = biological target: Cyclin-dependent kinase 7/ cyclin H (Homo sapiens, UniProt P50613); experiment: Binding affinity to CDK7/CyclinH (unknown origin) assessed as dissociation constant by SPR assay; type: protein-complex assay
[35] = AUC(0 to t) in mouse at 1 mg/kg, iv; type: ADME, organism-based; settings: in vivo
[36] = Cmax in human HCC70 cells xenografted in female nu/nu mouse plasma at 1 mg/kg, po administered once daily; type: ADME, organism-based
[37] = Half life in human OVCAR-3 cells xenografted in female Balb/c nude mouse plasma at 10 mg/kg, po administered once daily; type: ADME, organism-based
[38] = AUC(0 to 24 hrs) in Sprague-Dawley rat at 100 mg/kg, po; type: ADME, organism-based; settings: in vivo
[39] = biological target: CDK4/Cyclin D3 (Homo sapiens) (UniProt P11802+P30281); experiment: Inhibition of CDK4/Cyclin D3 (unknown origin) at 200 nM relative to control; values are per cent of control
[40] = Volume of distribution at steady state in mouse at 1 mg/kg, iv; type: ADME, organism-based; settings: in vivo, read-out: Vdss
Mus musculus = experiment: In vivo inhibition of CDK2 phosphorylation in human HCC70 cells xenografted in female Balb/c nude mouse administered once daily for 7 days; type: functional, organism-based; settings: dose 2-10 mg/kg, time 7.0 day
[41] = Oral bioavailability in dog at 2 mg/kg; type: ADME, organism-based, Canis lupus familiaris; settings: in vivo
[42] = biological target: Cyclin-dependent kinase 4/cyclin D1 (Homo sapiens, UniProt P11802); experiment: Inhibition of CDK4/CyclinD1 (unknown origin); type: protein-complex assay
Sequence of Cyclin-dependent kinase 4/cyclin D1 (P11802 whole entry): as the sequence (P11802 whole entry) above
Sequence of Cyclin-dependent kinase 4/cyclin D1 (P24385 whole entry, further chain): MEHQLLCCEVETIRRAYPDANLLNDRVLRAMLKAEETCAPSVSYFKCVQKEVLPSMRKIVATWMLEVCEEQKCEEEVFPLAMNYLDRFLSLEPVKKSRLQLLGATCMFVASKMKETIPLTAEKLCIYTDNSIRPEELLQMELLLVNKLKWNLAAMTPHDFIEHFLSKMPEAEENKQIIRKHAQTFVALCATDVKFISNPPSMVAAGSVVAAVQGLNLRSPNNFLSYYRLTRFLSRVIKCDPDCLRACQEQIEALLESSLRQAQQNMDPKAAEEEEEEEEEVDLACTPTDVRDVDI

[43] = Cmax in rat at 5 mg/kg, po; type: ADME, organism-based; settings: in vivo
[44] = AUC(0 to t) in dog at 2 mg/kg, po; type: ADME, organism-based, Canis lupus familiaris; settings: in vivo
[45] = biological target: Cyclin-dependent kinase 9 (Homo sapiens, UniProt P50750); experiment: Inhibition of CDK9 (unknown origin)

fraction unbound [1]: 0.036
half-life [2]: 2 h
half-life [3]: 4.3 h
solubility [4]: 917 µg/mL (≈ 1530 µM)
residual activity [5]: 28%
Cmax [7]: 400 ng/mL
AUC(0-t) [8]: 3960 ng·h/mL
AUC(0-t) [10]: 3070 ng·h/mL
clearance [11]: 52.6 mL/min/kg
residual activity [12]: 5.6%
pIC50 [13]: 8.55
pIC50 [14]: 7.58
AUC(0-t) [15]: 554 ng·h/mL
CLint scaled [16]: 84.3 mL/min/kg
residual activity [17]: 0.8%
Cmax [18]: 214 ng/mL
half-life [19]: 5.5 h
AUC(0-t) [20]: 15300 ng·h/mL
AUC(0-t) [21]: 3940 ng·h/mL
pIC50 (Cytochrome P450 2C9): 4.38
concentration at 0.5 h [22]: 33.9 ng/mL
Cmax [23]: 1270 ng/mL
Cmax [24]: 355 ng/mL
half-life [25]: 1.7 h
Vd [27]: 2.6 L/kg
residual activity [29]: 2.7%
bioavailability [30]: 78.7%
pIC50 (CDK4/Cyclin D3): 7.88
Vd [33]: 1.7 L/kg
pKd [34]: 9.74
AUC(0-t) [35]: 315 ng·h/mL
half-life [37]: 2 h
AUC(0-t) [38]: 14200 ng·h/mL
residual activity [39]: 17%
Vd [40]: 1.7 L/kg
bioavailability [41]: 147%
pIC50 [42]: 6.84
Cmax [43]: 165 ng/mL
AUC(0-t) [44]: 44600 ng·h/mL
pIC50 [45]: 6.59
Compound: CN1CC(F)(F)CCN(C)[C@H]2CC[C@@H](C2)Nc2ncc(C(F)(F)F)c(n2)-c2c[nH]c3c(P(C)(C)=O)c(ccc23)C1=O
half-life [6]: 1.7 h
AUC(0-t) [9]: 84 ng·h/mL
inhibition in vivo at 5 mg/kg (OVCAR-3): 111%
pIC50 (HCC70): 7.61
Cmax [26]: 130 ng/mL
AUC(0-t) [28]: 812 ng·h/mL
pIC50 [31]: 5.00
pIC50 [32]: 8.10
Cmax [36]: 75 ng/mL
Activity (Mus musculus): Dose-dependent-effect
